Results taken from patent publication US9580444B2, “Polycyclic pyrazolinone derivative and herbicide comprising same as effective component thereof” (priority 2013, dated 2017).

system: Cyperus difformis (smallflower umbrella plant); experiment: Test Example-1: herbicidal effect by a treatment before weeds are generated under submerged conditions; assay type: in vivo; details: 500 g a.i/ha, pre-emergence treatment, about 15 days after treatment, score 0-5
In short: (§1)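 Treatment is made before weed emergence: seeds sit in puddled, submerged paddy soil and receive the diluted wettable powder or emulsifiable concentrate into the water at a fixed dosage. Rating on a 0–5 scale follows after around 15 days.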

Row | Structure (SMILES) | Herbicidal effect Cyperus difformis
1 | COc1cc(F)ccc1Oc1cc(-c2c(Cl)n3n(c2=O)CCCC3)c(F)cc1Cl [Compound 3-33] | 5 (Herbicidal effect/phytotoxicity was 90% or greater)
2 | C=C(COc1ccccc1Oc1cc(-c2c(Cl)n3n(c2=O)CCCC3)c(F)cc1Cl)c1cccc(Cl)c1 [Compound 3-26] | 5 (Herbicidal effect/phytotoxicity was 90% or greater)
3 | CC(C)CCOc1cc(-c2c(Cl)n3n(c2=O)CCCC3)c(F)cc1Cl [Example 1-159] | 5 (Herbicidal effect/phytotoxicity was 90% or greater)
4 | COC(=O)C=C(COc1cc(-c2c(Cl)n3n(c2=O)CCCC3)c(Cl)cc1Cl)OC (mixture of isomers) [Compound 2-5] | 5 (Herbicidal effect/phytotoxicity was 90% or greater)

system: Echinochloa oryzicola (barnyard grass); experiment: as above; assay type: in vivo; details: 500 g a.i/ha, pre-emergence treatment, about 15 days after treatment, score 0-5
In short: as §1

Row | Structure (SMILES) | Herbicidal effect Echinochloa oryzicola
5 | COc1cc(F)ccc1Oc1cc(-c2c(Cl)n3n(c2=O)CCCC3)c(F)cc1Cl [Compound 3-33] | 5 (Herbicidal effect/phytotoxicity was 90% or greater)
6 | C=C(COc1ccccc1Oc1cc(-c2c(Cl)n3n(c2=O)CCCC3)c(F)cc1Cl)c1cccc(Cl)c1 [Compound 3-26] | 5 (Herbicidal effect/phytotoxicity was 90% or greater)
7 | CC(C)CCOc1cc(-c2c(Cl)n3n(c2=O)CCCC3)c(F)cc1Cl [Example 1-159] | 5 (Herbicidal effect/phytotoxicity was 90% or greater)
8 | COC(=O)C=C(COc1cc(-c2c(Cl)n3n(c2=O)CCCC3)c(Cl)cc1Cl)OC (mixture of isomers) [Compound 2-5] | 5 (Herbicidal effect/phytotoxicity was 90% or greater)

system: Eleocharis acicularis (needle spikerush); experiment: as above; assay type: in vivo; details: 500 g a.i/ha, pre-emergence treatment, about 15 days after treatment, score 0-5
In short: as §1

Row | Structure (SMILES) | Herbicidal effect Eleocharis acicularis
9 | COc1cc(F)ccc1Oc1cc(-c2c(Cl)n3n(c2=O)CCCC3)c(F)cc1Cl [Compound 3-33] | 5 (Herbicidal effect/phytotoxicity was 90% or greater)
10 | C=C(COc1ccccc1Oc1cc(-c2c(Cl)n3n(c2=O)CCCC3)c(F)cc1Cl)c1cccc(Cl)c1 [Compound 3-26] | 5 (Herbicidal effect/phytotoxicity was 90% or greater)
11 | CC(C)CCOc1cc(-c2c(Cl)n3n(c2=O)CCCC3)c(F)cc1Cl [Example 1-159] | 5 (Herbicidal effect/phytotoxicity was 90% or greater)
12 | COC(=O)C=C(COc1cc(-c2c(Cl)n3n(c2=O)CCCC3)c(Cl)cc1Cl)OC (mixture of isomers) [Compound 2-5] | 5 (Herbicidal effect/phytotoxicity was 90% or greater)

system: Monochoria vaginalis (monochoria); experiment: as above; assay type: in vivo; details: 500 g a.i/ha, pre-emergence treatment, about 15 days after treatment, score 0-5
In short: as §1

Row | Structure (SMILES) | Herbicidal effect Monochoria vaginalis
13 | COc1cc(F)ccc1Oc1cc(-c2c(Cl)n3n(c2=O)CCCC3)c(F)cc1Cl [Compound 3-33] | 5 (Herbicidal effect/phytotoxicity was 90% or greater)
14 | C=C(COc1ccccc1Oc1cc(-c2c(Cl)n3n(c2=O)CCCC3)c(F)cc1Cl)c1cccc(Cl)c1 [Compound 3-26] | 5 (Herbicidal effect/phytotoxicity was 90% or greater)
15 | CC(C)CCOc1cc(-c2c(Cl)n3n(c2=O)CCCC3)c(F)cc1Cl [Example 1-159] | 5 (Herbicidal effect/phytotoxicity was 90% or greater)
16 | COC(=O)C=C(COc1cc(-c2c(Cl)n3n(c2=O)CCCC3)c(Cl)cc1Cl)OC (mixture of isomers) [Compound 2-5] | 5 (Herbicidal effect/phytotoxicity was 90% or greater)

system: Scirpus juncoides (bulrush); experiment: as above; assay type: in vivo; details: 500 g a.i/ha, pre-emergence treatment, about 15 days after treatment, score 0-5
In short: as §1

Row | Structure (SMILES) | Herbicidal effect Scirpus juncoides
17 | COc1cc(F)ccc1Oc1cc(-c2c(Cl)n3n(c2=O)CCCC3)c(F)cc1Cl [Compound 3-33] | 5 (Herbicidal effect/phytotoxicity was 90% or greater)
18 | C=C(COc1ccccc1Oc1cc(-c2c(Cl)n3n(c2=O)CCCC3)c(F)cc1Cl)c1cccc(Cl)c1 [Compound 3-26] | 5 (Herbicidal effect/phytotoxicity was 90% or greater)
19 | CC(C)CCOc1cc(-c2c(Cl)n3n(c2=O)CCCC3)c(F)cc1Cl [Example 1-159] | 5 (Herbicidal effect/phytotoxicity was 90% or greater)
20 | COC(=O)C=C(COc1cc(-c2c(Cl)n3n(c2=O)CCCC3)c(Cl)cc1Cl)OC (mixture of isomers) [Compound 2-5] | 5 (Herbicidal effect/phytotoxicity was 90% or greater)

system: other annual broad leaf weeds (Lindernia procumbens, Rotala indica, Elatine triandra); experiment: as above; assay type: in vivo; details: 500 g a.i/ha, pre-emergence treatment, about 15 days after treatment, score 0-5
In short: as §1

Row | Structure (SMILES) | Herbicidal effect Broadleaf weed
21 | COc1cc(F)ccc1Oc1cc(-c2c(Cl)n3n(c2=O)CCCC3)c(F)cc1Cl [Compound 3-33] | 5 (Herbicidal effect/phytotoxicity was 90% or greater)
22 | C=C(COc1ccccc1Oc1cc(-c2c(Cl)n3n(c2=O)CCCC3)c(F)cc1Cl)c1cccc(Cl)c1 [Compound 3-26] | 5 (Herbicidal effect/phytotoxicity was 90% or greater)
23 | CC(C)CCOc1cc(-c2c(Cl)n3n(c2=O)CCCC3)c(F)cc1Cl [Example 1-159] | 5 (Herbicidal effect/phytotoxicity was 90% or greater)
24 | COC(=O)C=C(COc1cc(-c2c(Cl)n3n(c2=O)CCCC3)c(Cl)cc1Cl)OC (mixture of isomers) [Compound 2-5] | 5 (Herbicidal effect/phytotoxicity was 90% or greater)

system: Abutilon theophrasti (velvetleaf); experiment: Test Example-4: herbicidal effect by a foliage treatment after weeds are generated under upland field conditions; assay type: in vivo; details: 500 g a.i/ha, foliage treatment after emergence, about 14 days after treatment, score 0-5
Excerpt: (§2) Using the formulation prepared according to the methods described above, the herbicidal effect of the bicyclic pyrazolinone derivative of the invention according to the methods shown in Test Examples below was examined. The herbicidal effect with respect to the test weeds or the phytotoxicity with respect to the test crops was examined according to the following criteria, and evaluated in six stage scores of 0 to 5. A vat having an area of 65 cm^2 and a depth of 2 cm was filled with upland soil, then, seeds of Amaranthus viridis (green amaranthus), Abutilon theophrasti (velvetleaf), Chenopodium album (common lambsquarters), […]. While watering was suitably performed on there, the seeds were grown for 14 days. A wettable powder or an emulsifiable concentrate of the compound of the present invention prepared according to Formulation Example was diluted, and a spray treatment was uniformly performed on the foliage portion of the plant so as to be a predetermined dosage in the amount of water of 4000 L per hectare. The herbicidal effect with respect to the test weeds and the phytotoxicity with respect to corn about 14 days after the treatment were evaluated according to the evaluation criteria in six stages of 0 to 5 described above.

Row | Structure (SMILES) | Herbicidal effect Abutilon theophrast
25 | CCOC(=O)COc1ccccc1Oc1cc(-c2c(Cl)n3n(c2=O)CCCC3)c(F)cc1Cl [Example 3-17] | 5 (Herbicidal effect/phytotoxicity was 90% or greater)
26 | CCOC(=O)COc1cc(-c2c(Cl)n3n(c2=O)CCCC3)c(F)cc1Cl [Example 1-163] | 5 (Herbicidal effect/phytotoxicity was 90% or greater)
27 | C=C(COc1cc(-c2c(Cl)n3n(c2=O)CCCC3)c(F)cc1Cl)c1ccc(OCC)c(F)c1F [Example 1-230] | 5 (Herbicidal effect/phytotoxicity was 90% or greater)
28 | CCCOC(=O)C=C(COc1cc(-c2c(Cl)n3n(c2=O)CCCC3)c(F)cc1Cl)OCC (mixture of isomers) [Example 2-23] | 5 (Herbicidal effect/phytotoxicity was 90% or greater)
29 | CC1(COc2cc(-c3c(Cl)n4n(c3=O)CCCC4)c(F)cc2Cl)CC(c2ccc(F)cc2Cl)=NO1 (centres unmarked) [Example 4-11] | 5 (Herbicidal effect/phytotoxicity was 90% or greater)

system: Amaranthus viridis (green amaranthus); experiment: as above; assay type: in vivo; details: 500 g a.i/ha, foliage treatment after emergence, about 14 days after treatment, score 0-5
Excerpt: as §2

Row | Structure (SMILES) | Herbicidal effect Amaranthus viridis
30 | CCOC(=O)COc1ccccc1Oc1cc(-c2c(Cl)n3n(c2=O)CCCC3)c(F)cc1Cl [Example 3-17] | 5 (Herbicidal effect/phytotoxicity was 90% or greater)
31 | CCOC(=O)COc1cc(-c2c(Cl)n3n(c2=O)CCCC3)c(F)cc1Cl [Example 1-163] | 5 (Herbicidal effect/phytotoxicity was 90% or greater)
32 | C=C(COc1cc(-c2c(Cl)n3n(c2=O)CCCC3)c(F)cc1Cl)c1ccc(OCC)c(F)c1F [Example 1-230] | 5 (Herbicidal effect/phytotoxicity was 90% or greater)
33 | CCCOC(=O)C=C(COc1cc(-c2c(Cl)n3n(c2=O)CCCC3)c(F)cc1Cl)OCC (mixture of isomers) [Example 2-23] | 5 (Herbicidal effect/phytotoxicity was 90% or greater)
34 | CC1(COc2cc(-c3c(Cl)n4n(c3=O)CCCC4)c(F)cc2Cl)CC(c2ccc(F)cc2Cl)=NO1 (centres unmarked) [Example 4-11] | 5 (Herbicidal effect/phytotoxicity was 90% or greater)

system: Chenopodium album (common lambsquarters); experiment: as above; assay type: in vivo; details: 500 g a.i/ha, foliage treatment after emergence, about 14 days after treatment, score 0-5
Excerpt: as §2

Row | Structure (SMILES) | Herbicidal effect Chenopodium album
35 | CCOC(=O)COc1ccccc1Oc1cc(-c2c(Cl)n3n(c2=O)CCCC3)c(F)cc1Cl [Example 3-17] | 5 (Herbicidal effect/phytotoxicity was 90% or greater)
36 | CCOC(=O)COc1cc(-c2c(Cl)n3n(c2=O)CCCC3)c(F)cc1Cl [Example 1-163] | 5 (Herbicidal effect/phytotoxicity was 90% or greater)
37 | C=C(COc1cc(-c2c(Cl)n3n(c2=O)CCCC3)c(F)cc1Cl)c1ccc(OCC)c(F)c1F [Example 1-230] | 5 (Herbicidal effect/phytotoxicity was 90% or greater)
38 | CCCOC(=O)C=C(COc1cc(-c2c(Cl)n3n(c2=O)CCCC3)c(F)cc1Cl)OCC (mixture of isomers) [Example 2-23] | 5 (Herbicidal effect/phytotoxicity was 90% or greater)
39 | CC1(COc2cc(-c3c(Cl)n4n(c3=O)CCCC4)c(F)cc2Cl)CC(c2ccc(F)cc2Cl)=NO1 (centres unmarked) [Example 4-11] | 5 (Herbicidal effect/phytotoxicity was 90% or greater)

system: corn; experiment: Test Example-4: phytotoxicity by a foliage treatment after weeds are generated under upland field conditions; assay type: in vivo; details: 500 g a.i/ha, foliage treatment after emergence, about 14 days after treatment, score 0-5
Excerpt: as §2

Row | Structure (SMILES) | Phytotoxicity Corn
40 | CCOC(=O)COc1ccccc1Oc1cc(-c2c(Cl)n3n(c2=O)CCCC3)c(F)cc1Cl [Example 3-17] | 0 (Herbicidal effect/phytotoxicity was 0% to 10%)
41 | CCOC(=O)COc1cc(-c2c(Cl)n3n(c2=O)CCCC3)c(F)cc1Cl [Example 1-163] | 0 (Herbicidal effect/phytotoxicity was 0% to 10%)
42 | C=C(COc1cc(-c2c(Cl)n3n(c2=O)CCCC3)c(F)cc1Cl)c1ccc(OCC)c(F)c1F [Example 1-230] | 0 (Herbicidal effect/phytotoxicity was 0% to 10%)
43 | CCCOC(=O)C=C(COc1cc(-c2c(Cl)n3n(c2=O)CCCC3)c(F)cc1Cl)OCC (mixture of isomers) [Example 2-23] | 0 (Herbicidal effect/phytotoxicity was 0% to 10%)
44 | CC1(COc2cc(-c3c(Cl)n4n(c3=O)CCCC4)c(F)cc2Cl)CC(c2ccc(F)cc2Cl)=NO1 (centres unmarked) [Example 4-11] | 2 (Herbicidal effect/phytotoxicity was 30% to 50%)
